{
  "source": "patent US20110201642A1",
  "about": "“Bioactive Compounds” (priority 2008, published 2011)",
  "assay_type_in_all_cases": "cell-based",
  "key": {"[1]": {"test_system": "HCT116 (ATCC CCL-247) human colon cancer cell line", "assay": "MTT cytotoxic assay against HCT116 (96 h)", "method": "(§1) Human breast cancer, MCF7 (ATCC HTB-22) and human colon cancer, HCT116 (ATCC CCL-247) cell lines were all maintained in RPMI 1640 (Sigma), supplemented with 10% Foetal Bovine Serum (FBS, PAA Laboratories). Cells of 80-85% confluence were harvested and plated onto 96-flat bottom well plates for experimental use. In all experiments, cells were incubated in a CO2 incubator at 37° C. with 5% CO2 overnight prior to treatment.\n(§2) Compounds were tested against MCF7 and HCT116 and incubated for 96 h before cytotoxic assay using the MTT (3-(4,5-dimethylthiazole-2-yl)-2,5-diphenyltetrazolium bromide) assay according to Mosmann (J. Immunol Meth. 65 (1983) 55-63). Plates were read using an Elisa plate reader at 520 nm. Data generated was used to plot a dose response curve. Cytotoxic activity was expressed as the mean concentration of extract required to kill 50% of the cell population (IC50)."}, "[2]": {"test_system": "MCF7 (ATCC HTB-22) human breast cancer cell line", "assay": "MTT cytotoxic assay against MCF7 (96 h)", "settings": "for IC50: Homo sapiens, MCF7, 96 h", "method": "as §1, §2"}, "[3]": {"test_system": "P388 murine leukemia cell line", "assay": "Cytotoxicity against P388 murine leukemia cell line", "settings": "for IC50: Mus musculus, P388 murine leukemia", "method": "The Compounds A1-A5 were assayed against three cell lines: murine leukemia, P388; human breast cancer, MCF7 (ATCC HTB-22); and human colon cancer, HCT116 (ATCC CCL-247)."}, "[4]": {"settings": "Homo sapiens, HCT-116, 96 h, read-out: IC50 (nM) HCT116"}, "[5]": {"settings": "Homo sapiens, HCT-116, 96 h, read-out: IC50 (ng/mL) HCT116"}},
  "note": "Where two headings read alike, the source gives them in different places.",
  "data": [
    {"molecule": "O=c1[nH]cc(F)c(=O)[nH]1", "note": "[5-fluorouracil, reference compound]", "values": [
      {"measurement": "IC50", "setting": "[1]; HCT-116, HCT116 human colon cancer, MTT, 96 h, read-out: IC50 (ng/mL) HCT116", "result": 910, "unit": "ng/mL"}
    ]},
    {"molecule": "C=CC(C)CC1NC(=O)C(C(O)C(C)C)N(C)C(=O)C(C)N(C)C(=O)C(C(C)C)NC(=O)C(C(O)C(C)C)NC(=O)C2CCCCN2C(=O)C(C)N(C)C1=O", "note": "(stereo not shown) [Compound A1]", "values": [
      {"measurement": "IC50", "setting": "[1]; [4]", "result": 5.9, "unit": "nM"},
      {"measurement": "IC50", "setting": "[1]; [5]", "result": 4.7, "unit": "ng/mL"},
      {"measurement": "IC50", "setting": "[2]; read-out: IC50 (nM) MCF7", "result": 8.1, "unit": "nM"},
      {"measurement": "IC50", "setting": "[2]; read-out: IC50 (ng/mL) MCF7", "result": 6.5, "unit": "ng/mL"},
      {"measurement": "IC50", "setting": "[3]; read-out: IC50 (nM) P388", "result": 3.8, "unit": "nM"},
      {"measurement": "IC50", "setting": "[3]; read-out: IC50 (ng/mL) P388", "result": 3, "unit": "ng/mL"}
    ]},
    {"molecule": "CCC(C)C1NC(=O)C(C(O)C(C)C)NC(=O)C2CCCCN2C(=O)C(C)N(C)C(=O)C(CC(C)C)NC(=O)C(C(O)C(C)C)N(C)C(=O)C(C)N(C)C1=O", "note": "(stereo not shown) [Compound A2]", "values": [
      {"measurement": "IC50", "setting": "[1]; [4]", "result": 11.6, "unit": "nM"},
      {"measurement": "IC50", "setting": "[1]; [5]", "result": 9.3, "unit": "ng/mL"},
      {"measurement": "IC50", "setting": "[2]; read-out: IC50 (nM) MCF7", "result": 8.3, "unit": "nM"},
      {"measurement": "IC50", "setting": "[2]; read-out: IC50 (ng/mL) MCF7", "result": 6.6, "unit": "ng/mL"},
      {"measurement": "IC50", "setting": "[3]; read-out: IC50 (nM) P388", "result": 56, "unit": "nM"},
      {"measurement": "IC50", "setting": "[3]; read-out: IC50 (ng/mL) P388", "result": 45, "unit": "ng/mL"}
    ]},
    {"molecule": "C=CC(C)CC1NC(=O)C(C(O)C(C)C)N(C)C(=O)C(C)N(C)C(=O)C(C(C)CC)NC(=O)C(C(O)C(C)C)NC(=O)C2CCCCN2C(=O)C(C)N(C)C1=O", "note": "(stereo not shown) [Compound A3]", "values": [
      {"measurement": "IC50", "setting": "[1]; [4]", "result": 0.3, "unit": "nM"},
      {"measurement": "IC50", "setting": "[1]; [5]", "result": 0.2, "unit": "ng/mL"},
      {"measurement": "IC50", "setting": "[2]; read-out: IC50 (nM) MCF7", "result": 0.9, "unit": "nM"},
      {"measurement": "IC50", "setting": "[2]; read-out: IC50 (ng/mL) MCF7", "result": 0.73, "unit": "ng/mL"},
      {"measurement": "IC50", "setting": "[3]; read-out: IC50 (nM) P388", "result": 1.3, "unit": "nM"},
      {"measurement": "IC50", "setting": "[3]; read-out: IC50 (ng/mL) P388", "result": 1, "unit": "ng/mL"}
    ]},
    {"molecule": "CCC(C)CC1NC(=O)C(C(O)C(C)C)N(C)C(=O)C(C)N(C)C(=O)C(C(C)CC)NC(=O)C(C(O)C(C)C)NC(=O)C2CCCCN2C(=O)C(C)N(C)C1=O", "note": "(stereo not shown) [Compound A4]", "values": [
      {"measurement": "IC50", "setting": "[1]; [4]", "result": 3.9, "unit": "nM"},
      {"measurement": "IC50", "setting": "[1]; [5]", "result": 3.1, "unit": "ng/mL"},
      {"measurement": "IC50", "setting": "[2]; read-out: IC50 (nM) MCF7", "result": 7.1, "unit": "nM"},
      {"measurement": "IC50", "setting": "[2]; read-out: IC50 (ng/mL) MCF7", "result": 5.7, "unit": "ng/mL"},
      {"measurement": "IC50", "setting": "[3]; read-out: IC50 (nM) P388", "result": 24, "unit": "nM"},
      {"measurement": "IC50", "setting": "[3]; read-out: IC50 (ng/mL) P388", "result": 19, "unit": "ng/mL"}
    ]},
    {"molecule": "C=CC(C)CC1NC(=O)C(C(O)C(C)CC)N(C)C(=O)C(C)N(C)C(=O)C(C(C)CC)NC(=O)C(C(O)C(C)C)NC(=O)C2CCCCN2C(=O)C(C)N(C)C1=O", "note": "(stereo not shown) [Compound A5]", "values": [
      {"measurement": "IC50", "setting": "[1]; [4]", "result": 0.3, "unit": "nM"},
      {"measurement": "IC50", "setting": "[1]; [5]", "result": 0.2, "unit": "ng/mL"},
      {"measurement": "IC50", "setting": "[2]; read-out: IC50 (nM) MCF7", "result": 1, "unit": "nM"},
      {"measurement": "IC50", "setting": "[2]; read-out: IC50 (ng/mL) MCF7", "result": 0.8, "unit": "ng/mL"},
      {"measurement": "IC50", "setting": "[3]; read-out: IC50 (nM) P388", "result": 0.13, "unit": "nM"},
      {"measurement": "IC50", "setting": "[3]; read-out: IC50 (ng/mL) P388", "result": 0.1, "unit": "ng/mL"},
      {"measurement": "factor between the least active, Compound A2, and the most active, Compound A5", "setting": "[3]; P388 data", "result": "~450"}
    ]},
    {"molecule": "N.N.[Cl][Pt][Cl]", "note": "[cisplatin, reference compound]", "values": [
      {"measurement": "IC50 (ng/mL) HCT116", "setting": "[1]; HCT116 human colon cancer, MTT, 96 h", "result": 1650, "unit": "ng/mL"},
      {"measurement": "IC50 (ng/mL) MCF7", "setting": "[2]; MCF7 human breast cancer, MTT, 96 h", "result": 8705, "unit": "ng/mL"}
    ]}
  ]
}
